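All cell lines were grown in 96-well plates and treated with compound for 48 hours. Abbreviation: GI50, concentration required for 50% inhibition of growth.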 Active and inactive are the calls of the source. Cut-off read from the data, not from the text of the source: active = GI50 up to about 1.1 µM and inactive = higher.
Columns and labels:
Assay in all cases: inhibition of tumour cell growth, NCI panel, 48 h
786-0 = tested on: 786-0
A498 = tested on: A498
A549 = tested on: A549
COLO 205 = tested on: COLO 205
DU-145 = tested on: DU-145
EKVX = tested on: EKVX
HCT-116 = tested on: HCT-116
HOP-62 = tested on: HOP-62
HT-29 = tested on: HT-29
IGROV-1 = tested on: IGROV-1
MOLT-4 = tested on: MOLT-4
OVCAR-3 = tested on: OVCAR-3
OVCAR-4 = tested on: OVCAR-4
PC-3 = tested on: PC-3
SK-MEL-28 = tested on: SK-MEL-28
SK-MEL-2 = tested on: SK-MEL-2
SK-OV-3 = tested on: SK-OV-3
SNB-75 = tested on: SNB-75
UACC-257 = tested on: UACC-257
UACC-62 = tested on: UACC-62

Compound | GI50 (786-0) | GI50 (A498) | GI50 (A549) | GI50 (COLO 205) | GI50 (DU-145) | GI50 (EKVX) | GI50 (HCT-116) | GI50 (HOP-62) | GI50 (HT-29) | GI50 (IGROV-1) | GI50 (MOLT-4) | GI50 (OVCAR-3) | GI50 (OVCAR-4) | GI50 (PC-3) | GI50 (SK-MEL-28) | GI50 (SK-MEL-2) | GI50 (SK-OV-3) | GI50 (SNB-75) | GI50 (UACC-257) | GI50 (UACC-62)
C/C(=N\N=C(/[SeH])N1CC2CCC(CC2)C1)c1ccccn1 | 0.211 µM (active) | 0.196 µM (active) | 0.0614 µM (active) | < 0.01 µM (active) | 0.927 µM (active) | 0.0914 µM (active) | < 0.01 µM (active) | 0.341 µM (active) | < 0.01 µM (active) | 0.0169 µM (active) | 0.014 µM (active) | 0.0222 µM (active) | 0.03 µM (active) | 0.0647 µM (active) | 0.0955 µM (active) | 0.156 µM (active) | 0.356 µM (active) | 0.0871 µM (active) | 0.0112 µM (active) | 0.0596 µM (active)
CN(C)S(=O)(=O)c1ccc(Nc2ccc(O)c3c2C(=O)c2c([N+](=O)[O-])ccc(O)c2C3=O)cc1 | > 100 µM (inactive) | > 100 µM (inactive) | > 100 µM (inactive) | 65.8 µM (inactive) | > 100 µM (inactive) | > 100 µM (inactive) | 72.9 µM (inactive) | > 100 µM (inactive) | > 100 µM (inactive) | > 100 µM (inactive) | 35.5 µM (inactive) | > 100 µM (inactive) | > 100 µM (inactive) | > 100 µM (inactive) | > 100 µM (inactive) | > 100 µM (inactive) | > 100 µM (inactive) | > 100 µM (inactive) | > 100 µM (inactive) | > 100 µM (inactive)
Cc1ncn(-c2ccccc2O)c1C | > 100 µM (inactive) | > 100 µM (inactive) | > 100 µM (inactive) | > 100 µM (inactive) | > 100 µM (inactive) | > 100 µM (inactive) | > 100 µM (inactive) | > 100 µM (inactive) | > 100 µM (inactive) | > 100 µM (inactive) | > 100 µM (inactive) | > 100 µM (inactive) | > 100 µM (inactive) | > 100 µM (inactive) | > 100 µM (inactive) | > 100 µM (inactive) | > 100 µM (inactive) | > 100 µM (inactive) | 34.9 µM (inactive) | > 100 µM (inactive)
CC1Oc2cc3c(-c4c(O)cc(O)c5c(O)c6c(cc45)OC(C)C(C)C6=O)c(O)cc(O)c3c(O)c2C(=O)C1C (stereo not given) | 0.102 µM (active) | 0.155 µM (active) | 0.0252 µM (active) | 0.17 µM (active) | 0.365 µM (active) | 0.116 µM (active) | 0.0378 µM (active) | 0.282 µM (active) | 0.0289 µM (active) | 0.0574 µM (active) | 0.109 µM (active) | 0.255 µM (active) | 0.0869 µM (active) | 0.0546 µM (active) | 0.698 µM (active) | 0.101 µM (active) | 0.363 µM (active) | 0.0675 µM (active) | 0.289 µM (active) | 0.372 µM (active)
CCOC(=O)CCC(NC(=O)c1ccc(/N=C/c2nc3cc(C(F)(F)F)ccc3nc2-c2ccccc2)cc1)C(=O)OCC (stereo not given) | 7.38 µM (inactive) | 23.4 µM (inactive) | 25.1 µM (inactive) | 25.5 µM (inactive) | 34.1 µM (inactive) | 28.9 µM (inactive) | 6.56 µM (inactive) | 12.9 µM (inactive) | > 50 µM (inactive) | 15.3 µM (inactive) | > 50 µM (inactive) | 46.6 µM (inactive) | 11.5 µM (inactive) | > 50 µM (inactive) | > 50 µM (inactive) | 11.3 µM (inactive) | 8.77 µM (inactive) | 5.04 µM (inactive) | > 50 µM (inactive) | 12.2 µM (inactive)
Oc1ccc(Br)cc1/C=N/c1cccc(C(F)(F)F)c1 | 30.4 µM (inactive) | > 100 µM (inactive) | > 100 µM (inactive) | 96.6 µM (inactive) | 36.8 µM (inactive) | 27.1 µM (inactive) | 9.12 µM (inactive) | 49.5 µM (inactive) | 37.8 µM (inactive) | 6.24 µM (inactive) | 23.1 µM (inactive) | 37 µM (inactive) | 34.8 µM (inactive) | 7.16 µM (inactive) | 36.1 µM (inactive) | 19.5 µM (inactive) | 45.7 µM (inactive) | 42.6 µM (inactive) | 35.6 µM (inactive) | 25.1 µM (inactive)
COc1ccccc1C1ON=C(c2ccc([N+](=O)[O-])cc2)N1C12CC3CC(CC(C3)C1)C2 (stereo not given) | > 100 µM (inactive) | > 100 µM (inactive) | 94 µM (inactive) | > 100 µM (inactive) | > 100 µM (inactive) | > 100 µM (inactive) | 47.5 µM (inactive) | 20.4 µM (inactive) | 45.4 µM (inactive) | > 100 µM (inactive) | 17.6 µM (inactive) | > 100 µM (inactive) | > 100 µM (inactive) | 33 µM (inactive) | > 100 µM (inactive) | > 100 µM (inactive) | > 100 µM (inactive) | 42.1 µM (inactive) | > 100 µM (inactive) | > 100 µM (inactive)
COC(=O)/C(C#N)=C/c1cc(C(C)(C)C)c(O)c(C(C)(C)C)c1 | 3.15 µM (inactive) | 1.77 µM (inactive) | 2.64 µM (inactive) | 1.44 µM (inactive) | 4.58 µM (inactive) | 2.33 µM (inactive) | 2.66 µM (inactive) | 3.15 µM (inactive) | 2.82 µM (inactive) | 4.55 µM (inactive) | 2.2 µM (inactive) | 1.45 µM (inactive) | 1.85 µM (inactive) | 2.11 µM (inactive) | 2.62 µM (inactive) | 1.73 µM (inactive) | 2.48 µM (inactive) | 3.3 µM (inactive) | 1.82 µM (inactive) | 1.76 µM (inactive)
Cc1cc(S(=O)(=O)Nc2nc(N)nc(N3N=CCC3C)n2)c(SCC(=O)O)cc1Cl (stereo not given) | > 10 µM (inactive) | > 10 µM (inactive) | > 10 µM (inactive) | > 10 µM (inactive) | > 10 µM (inactive) | > 10 µM (inactive) | > 10 µM (inactive) | > 10 µM (inactive) | > 10 µM (inactive) | > 10 µM (inactive) | > 10 µM (inactive) | > 10 µM (inactive) | > 10 µM (inactive) | > 10 µM (inactive) | > 10 µM (inactive) | > 10 µM (inactive) | > 10 µM (inactive) | > 10 µM (inactive) | > 10 µM (inactive) | > 10 µM (inactive)
OC1(c2ccccc2)CC2CCC(C1)N2CCCC1(c2ccc(F)cc2)OCCO1 (stereo not given) | 18.2 µM (inactive) | > 100 µM (inactive) | > 100 µM (inactive) | 69.8 µM (inactive) | > 100 µM (inactive) | > 100 µM (inactive) | > 100 µM (inactive) | > 100 µM (inactive) | 36.5 µM (inactive) | > 100 µM (inactive) | 47.2 µM (inactive) | > 100 µM (inactive) | > 100 µM (inactive) | 22.5 µM (inactive) | 36.1 µM (inactive) | > 100 µM (inactive) | > 100 µM (inactive) | > 100 µM (inactive) | 28.1 µM (inactive) | > 100 µM (inactive)
O=C1C=C(NCCc2ccc(O)cc2)C(=O)C=C1NCCc1ccc(O)cc1 | > 100 µM (inactive) | > 100 µM (inactive) | > 100 µM (inactive) | > 100 µM (inactive) | > 100 µM (inactive) | > 100 µM (inactive) | 50 µM (inactive) | 64 µM (inactive) | > 100 µM (inactive) | > 100 µM (inactive) | 46.5 µM (inactive) | > 100 µM (inactive) | > 100 µM (inactive) | > 100 µM (inactive) | > 100 µM (inactive) | > 100 µM (inactive) | 54.3 µM (inactive) | 19.6 µM (inactive) | > 100 µM (inactive) | > 100 µM (inactive)
N#Cc1nc(C(F)(F)F)oc1N | > 100 µM (inactive) | > 100 µM (inactive) | > 100 µM (inactive) | > 100 µM (inactive) | > 100 µM (inactive) | > 100 µM (inactive) | > 100 µM (inactive) | > 100 µM (inactive) | > 100 µM (inactive) | > 100 µM (inactive) | > 100 µM (inactive) | > 100 µM (inactive) | > 100 µM (inactive) | > 100 µM (inactive) | > 100 µM (inactive) | > 100 µM (inactive) | > 100 µM (inactive) | > 100 µM (inactive) | > 100 µM (inactive) | > 100 µM (inactive)
CN1CSC(=S)N(c2cccc(C(F)(F)F)c2)C1 | 26.2 µM (inactive) | 28.3 µM (inactive) | 24.3 µM (inactive) | 19 µM (inactive) | 41.9 µM (inactive) | 25 µM (inactive) | 34 µM (inactive) | 26.9 µM (inactive) | 22.5 µM (inactive) | 18.7 µM (inactive) | 24.7 µM (inactive) | 30 µM (inactive) | 19.3 µM (inactive) | 25.1 µM (inactive) | 23.1 µM (inactive) | 21.3 µM (inactive) | 29.4 µM (inactive) | 42.2 µM (inactive) | 22.5 µM (inactive) | 16.9 µM (inactive)
COc1ccc2c(C(=O)c3cn(CCN4CCOCC4)c4ccccc34)cccc2c1 | > 20.8 µM (inactive) | > 100 µM (inactive) | 6.76 µM (inactive) | 58.9 µM (inactive) | > 23.6 µM (inactive) | > 48.2 µM (inactive) | 27.2 µM (inactive) | > 22 µM (inactive) | 53.6 µM (inactive) | > 91 µM (inactive) | 15.1 µM (inactive) | 13.6 µM (inactive) | 12.6 µM (inactive) | 30.8 µM (inactive) | > 62.4 µM (inactive) | > 100 µM (inactive) | 4.22 µM (inactive) | 88.5 µM (inactive) | 75.9 µM (inactive) | > 29.6 µM (inactive)

— ChEMBL document CHEMBL1201862, “PubChem BioAssay data set” (2004)
